Earlier results in patent US20230235017A1, “A DRUG SCREENING PLATFORM FOR ENDOSOMAL ENHANCERS TO TREAT ALZHEIMER'S DISEASE” (Aarhus Universitet, priority 2020, published 2023).

System: endosomal activity
Conditions: shown in the literature (Mecozzi 2014); cited from earlier work

For `N=C(N)SCc1ccc(CSC(=N)N)s1` [R55], which “effect on endosomal activity” value is on record?
Its value is “have an effect on endosomal activity”.
